In data set [1] the target is T1, Acid-sensing ion channel 3 (Homo sapiens) (UniProt Q9UHC3).
T1 sequence (whole entry): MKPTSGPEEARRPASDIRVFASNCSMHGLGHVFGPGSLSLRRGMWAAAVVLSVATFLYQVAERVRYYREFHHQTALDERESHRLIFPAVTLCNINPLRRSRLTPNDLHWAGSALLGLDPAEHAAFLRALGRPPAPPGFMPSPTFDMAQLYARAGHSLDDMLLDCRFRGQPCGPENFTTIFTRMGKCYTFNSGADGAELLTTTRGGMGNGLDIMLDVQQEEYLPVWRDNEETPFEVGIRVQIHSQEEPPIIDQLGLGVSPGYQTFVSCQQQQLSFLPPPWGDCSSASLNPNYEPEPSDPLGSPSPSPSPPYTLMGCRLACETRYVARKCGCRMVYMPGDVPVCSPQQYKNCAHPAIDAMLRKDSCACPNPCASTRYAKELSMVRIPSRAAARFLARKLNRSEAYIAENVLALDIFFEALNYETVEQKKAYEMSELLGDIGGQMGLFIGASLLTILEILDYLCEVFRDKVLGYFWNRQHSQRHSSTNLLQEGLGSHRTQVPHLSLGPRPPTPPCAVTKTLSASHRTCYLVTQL
The data set can be described thus: Inhibition of ASIC3 at 1 uM by patch-clamp electrophysiology assay relative to baseline peak current.

Data set [2] addresses T2, Acid-sensing ion channel 3 (Homo sapiens, UniProt Q9UHC3).
T2 sequence (Q9UHC3 whole entry): T1 sequence (whole entry)
The data set can be described thus: Inhibition of ASIC3 by patch-clamp electrophysiology assay.

The target in data set [3] is T1, Acid-sensing ion channel 3 (Homo sapiens). Kind of data set: Inhibition of ASIC3 at 10 uM by patch-clamp electrophysiology assay relative to baseline peak current. For orientation: Patch clamp records ionic current or voltage across a cell membrane.
A short description of data set [4]: Plasma clearance in iv dosed rat. The class given is ADME, organism-based.
For data set [5], the system named is Rattus norvegicus. The data set can be described thus: Analgesic activity against complete Freund's adjuvant-induced […] in Sprague-Dawley rat assessed as reversal of mechanical hypersensitivity at 30 mg/kg, ip after 30 mins. The format is functional, organism-based. Set-up: dose 30 mg/kg.
Data set [6] can be described thus: Half life in iv dosed rat plasma. The format is ADME, organism-based.
Data set [7] has as its system Rattus norvegicus. The data set can be described thus: Analgesic activity against complete Freund's adjuvant-induced […] in Sprague-Dawley rat assessed as reversal of mechanical hypersensitivity at 20 mg/kg, po after 30 mins. The class given is functional, organism-based. Set-up: dose 20 mg/kg.
Data set [8] can be described thus: Blood clearance in iv dosed rat. The format is ADME, organism-based. Conditions: whole blood.
Data set [9] can be described thus: Half life in iv dosed rat blood. The format is ADME, organism-based. Conditions: whole blood.

The source made the active and inactive calls. The rule behind the calls is not given here.

By inhibition is commonly meant how much of the control response was suppressed. A lower inhibition goes with a response near the control. For orientation: IC50 means the concentration needed to halve the response being measured. In data set [1], `N=C(N)c1ccc2[nH]c(-c3cc(Cl)cc(NCc4ccccc4)c3)cc2c1` yielded an inhibition of 91%. In addition, half-maximal inhibition in data set [2] (IC50) was put at 77 nM.

On to `N=C(N)c1ccc(-c2cc3ccccc3[nH]2)cc1`, for which, in data set [3], the inhibition was determined as 46%.

For the compound `N=C(N)c1ccc(-c2nc3cc(C(=N)N)ccc3[nH]2)cc1`, the inhibition in data set [3] was 53%.

For `Cn1c(-c2ccc(C(=N)N)cc2)cc2cc(C(=N)N)ccc21`, in [1], the inhibition came out at 14%.

The compound `N=C(N)c1ccc2[nH]c(-c3cc(Cl)cc(CNc4ccccc4)c3)cc2c1` registered an inhibition in [1] of 83%. Moreover, the IC50 in data set [2] came out at 114 nM.

In the case of `COc1cc(F)cc(-c2cc3cc(C(=N)N)ccc3[nH]2)c1`, the inhibition came out at 77% in data set [1] and 98% in [3]. In addition, half-maximal inhibition in data set [2] (IC50) was put at 374 nM.

`N=C(N)c1ccc2[nH]c(-c3cc(Cl)cc(-c4ccccc4)c3)cc2c1`: in [1], the inhibition stood at 94%.

In the case of `Cc1cc(Cl)cc(-c2cc3cc(C(=N)N)ccc3[nH]2)c1`, in [1], the inhibition was 87%. The compound further gave an IC50 in data set [2] of 51 nM.

The term clearance denotes a measure of how efficiently the substance is removed, as volume per time. High values mean efficient removal, low ones inefficient removal. The half-life is the time in which the quantity being followed falls by half. Take `N=C(N)c1ccc2[nH]c(-c3cc(Cl)cc(Cl)c3)cc2c1`: the clearance in data set [4] and in data set [8] was 8.5 mL/min/kg throughout. Moreover, the inhibition in data set [1] turned out to be 92%; in data set [3], 98%. Moreover, the outcome in the data set with Rattus norvegicus [5] and in the data set with Rattus norvegicus [7] was Active. Further, the half-life was 2 h in [6] and 4.4 h in [9]. Further, the IC50 in [2] was determined as 133 nM.

For `N=C(N)c1ccc2[nH]c(-c3cc(N)cc(Cl)c3)cc2c1`, the inhibition in data set [1] stood at 78%. For the same compound, the IC50 in data set [2] was found to be 95 nM.

As for `N=C(N)c1ccc2[nH]c(-c3cc(Cl)cc(Cl)c3Cl)cc2c1`, in data set [1], the inhibition is 91%. Besides, in data set [2], the concentration for half-maximal inhibition (IC50) was 135 nM.

For the compound `N=C(N)c1ccc2[nH]c(-c3cc(F)cc(Cl)c3)cc2c1`, the inhibition in [1] came out at 82%; in [3], 99%. Further, the midpoint of inhibition in data set [2], the IC50, lay at 278 nM.

In the case of `N=C(N)c1ccc2[nH]c(-c3cc(Br)cc(Br)c3)cc2c1`, the inhibition in data set [1] and in data set [3] was 92% each time. In addition, the IC50 in data set [2] was found to be 59 nM.

On to `N#Cc1c(Cl)cc(-c2cc3cc(C(=N)N)ccc3[nH]2)cc1Cl`, for which the inhibition in data set [1] came out at 83%. This compound also showed an IC50 in [2] of 272 nM.

As for `N=C(N)c1ccc2[nH]c(-c3cc(F)cc(Br)c3)cc2c1`, the inhibition in data set [1] amounted to 93%; in data set [3], 96%. The same compound registered an IC50 in [2] of 59 nM.

`N=C(N)c1ccc2[nH]c(-c3ccccc3)cc2c1` yielded an inhibition in data set [3] of 88%. This compound registered a half-maximal inhibitory concentration (IC50) in data set [2] of 2760 nM.

`N=C(N)c1ccc2cc(-c3ccccc3)[nH]c2c1` gave an inhibition in [1] of 18%.

On to `N=C(N)c1ccc(-c2cc3ccc(C(=N)N)cc3[nH]2)cc1`, for which the figures for the inhibition in [1] and in [3] were 33% and 83%, respectively.

`N=C(N)c1ccc2[nH]c(-c3cc(Cl)nc(Cl)c3)cc2c1` yielded an inhibition in data set [1] of 84%. Also, the IC50 in data set [2] came to 291 nM.

Source of the values: ChEMBL document CHEMBL1153050, “Amidine derived inhibitors of acid-sensing ion channel-3 (ASIC3)” (Bioorg Med Chem Lett, 2009).
